{"source": "patent US6358885B1", "about": "“Substituted phenylheterocyclic herbicides” (Mississippi State University, priority 1992, dated 2002)", "key": {"cocklebur": {"system": "cocklebur", "test": "Test B preemergence/postemergence greenhouse plant response rating 0 to 10", "format": "in vivo, Xanthium pensylvanicum", "conditions": "0 to 10 scale", "summary_of_the_method": "(§1)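 Test chemicals were sprayed onto freshly planted seed and, concurrently, onto young plants between the one and four leaf stage. After a twelve- to sixteen-day greenhouse period, each species was visually compared with untreated controls.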"}, "rice [1]": {"system": "rice", "test": "Test B preemergence/postemergence greenhouse plant response rating 0 to 10", "format": "in vivo, Oryza sativa", "conditions": "0 to 10 scale", "summary_of_the_method": "as §1"}, "soybean": {"system": "soybean", "test": "Test B preemergence/postemergence greenhouse plant response rating 0 to 10", "format": "in vivo, Glycine max", "conditions": "0 to 10 scale", "summary_of_the_method": "as §1"}, "wild buckwheat": {"system": "wild buckwheat", "test": "Test B preemergence/postemergence greenhouse plant response rating 0 to 10", "format": "in vivo, Polygonum convolvulus", "conditions": "0 to 10 scale", "summary_of_the_method": "as §1"}, "purple nutsedge": {"system": "purple nutsedge", "test": "Test B preemergence/postemergence greenhouse plant response rating 0 to 10", "format": "in vivo, Cyperus rotundus", "conditions": "0 to 10 scale", "summary_of_the_method": "as §1"}, "bedstraw": {"system": "bedstraw", "test": "Test C preemergence/postemergence greenhouse plant response rating 0 to 100", "format": "in vivo, Galium aparine", "conditions": "POSTEMERGENCE; for Plant response rating, Bedstraw: 0 to 100 scale", "summary_of_the_method": "(§2)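 Compounds in non-phytotoxic solvent applied preemergence to sandy loam one day after planting, postemergence at the 1–4 leaf stage, or to ~2.5 cm floodwater over silt loam.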"}, "blackgrass": {"system": "blackgrass", "test": "Test C preemergence/postemergence greenhouse plant response rating 0 to 100", "format": "in vivo, Alopecurus myosuroides", "conditions": "POSTEMERGENCE; for Plant response rating, Blackgrass: 0 to 100 scale", "summary_of_the_method": "as §2"}, "chickweed": {"system": "chickweed", "test": "Test C preemergence/postemergence greenhouse plant response rating 0 to 100", "format": "in vivo, Stellaria media", "conditions": "POSTEMERGENCE; for Plant response rating, Chickweed: 0 to 100 scale", "summary_of_the_method": "as §2"}, "corn": {"system": "corn", "test": "Test C preemergence/postemergence greenhouse plant response rating 0 to 100", "format": "in vivo, Zea mays", "conditions": "POSTEMERGENCE; for Plant response rating, Corn: 0 to 100 scale", "summary_of_the_method": "as §2"}, "cotton": {"system": "cotton", "test": "Test C preemergence/postemergence greenhouse plant response rating 0 to 100", "format": "in vivo, Gossypium hirsutum", "conditions": "POSTEMERGENCE; for Plant response rating, Cotton: 0 to 100 scale", "summary_of_the_method": "as §2"}, "giant foxtail": {"system": "giant foxtail", "test": "Test C preemergence/postemergence greenhouse plant response rating 0 to 100", "format": "in vivo, Setaria faberii", "conditions": "POSTEMERGENCE; for Plant response rating, Giant foxtail: 0 to 100 scale", "summary_of_the_method": "as §2"}, "pigweed": {"system": "pigweed", "test": "Test C preemergence/postemergence greenhouse plant response rating 0 to 100", "format": "in vivo, Amaranthusretroflexus", "conditions": "POSTEMERGENCE; for Plant response rating Pigweed: 0 to 100 scale", "summary_of_the_method": "as §2"}, "sugar beet": {"system": "sugar beet", "test": "Test C preemergence/postemergence greenhouse plant response rating 0 to 100", "format": "in vivo, Beta vulgaris", "conditions": "POSTEMERGENCE; for Plant response rating, Sugar beet: 0 to 100 scale", "summary_of_the_method": "as §2"}, "velvetleaf": {"system": "velvetleaf", "test": "Test C preemergence/postemergence greenhouse plant response rating 0 to 100", "format": "in vivo, Abutilon theophrasti", "conditions": "POSTEMERGENCE; for Plant response rating, Velvetleaf: 0 to 100 scale", "summary_of_the_method": "as §2"}, "rice [2]": {"system": "rice", "test": "Test C flood test plant response rating 0 to 100", "format": "in vivo, Oryza sativa", "conditions": "for Plant response rating (0 to 100), Rice Japonica: under POSTEMERGENCE head (flood test species); for Plant response rating Rice Japonica: flood test species listed under POSTEMERGENCE, 0 to 100 scale", "summary_of_the_method": "as §2"}, "umbrella sedge": {"system": "umbrella sedge", "test": "Test C flood test plant response rating 0 to 100", "format": "in vivo, Cyperus difformis", "conditions": "for Plant response rating (0 to 100), Umbrella sedge: under POSTEMERGENCE head (flood test species); for Plant response rating Umbrella sedge: flood test species listed under POSTEMERGENCE, 0 to 100 scale", "summary_of_the_method": "as §2"}, "duck salad": {"system": "duck salad", "test": "Test C flood test plant response rating 0 to 100", "format": "in vivo, Heteranthera limosa", "conditions": "for Plant response rating (0 to 100), Duck salad: under POSTEMERGENCE head (flood test species); for Plant response rating Duck salad: flood test species listed under POSTEMERGENCE, 0 to 100 scale", "summary_of_the_method": "as §2"}}}
{"smiles": "CC(C)OC(=O)COc1cc(-c2nn3c(c2Cl)CCCC3)c(F)cc1Cl", "note": "[Compound 39]", "values": [{"measurement": "Plant response rating, Cocklebur", "setting": "cocklebur; POSTEMERGENCE, Rate 50 g/ha", "result": 10}, {"measurement": "Plant response rating, Cocklebur", "setting": "cocklebur; POSTEMERGENCE, Rate 200 g/ha", "result": 10}, {"measurement": "Plant response rating, Cocklebur", "setting": "cocklebur; PREEMERGENCE, Rate 50 g/ha", "result": 0}, {"measurement": "Plant response rating, Cocklebur", "setting": "cocklebur; Rate 200 g/ha, PREEMERGENCE", "result": 1}, {"measurement": "Plant response rating, Rice", "setting": "rice [1]; POSTEMERGENCE, Rate 50 g/ha", "result": 4}, {"measurement": "Plant response rating, Rice", "setting": "rice [1]; PREEMERGENCE, Rate 50 g/ha", "result": 0}, {"measurement": "Plant response rating, Rice", "setting": "rice [1]; Rate 200 g/ha, POSTEMERGENCE", "result": 6}, {"measurement": "Plant response rating, Rice", "setting": "rice [1]; Rate 200 g/ha, PREEMERGENCE", "result": 0}, {"measurement": "Plant response rating, Soybean", "setting": "soybean; POSTEMERGENCE, Rate 50 g/ha", "result": 2}, {"measurement": "Plant response rating, Soybean", "setting": "soybean; PREEMERGENCE, Rate 50 g/ha", "result": 0}, {"measurement": "Plant response rating, Soybean", "setting": "soybean; Rate 200 g/ha, POSTEMERGENCE", "result": 4}, {"measurement": "Plant response rating, Soybean", "setting": "soybean; Rate 200 g/ha, PREEMERGENCE", "result": 0}, {"measurement": "Plant response rating, Wild buckwheat", "setting": "wild buckwheat; POSTEMERGENCE, Rate 50 g/ha", "result": 10}, {"measurement": "Plant response rating, Wild buckwheat", "setting": "wild buckwheat; PREEMERGENCE, Rate 50 g/ha", "result": 10}, {"measurement": "Plant response rating, Wild buckwheat", "setting": "wild buckwheat; Rate 200 g/ha, POSTEMERGENCE", "result": 10}, {"measurement": "Plant response rating, Wild buckwheat", "setting": "wild buckwheat; Rate 200 g/ha, PREEMERGENCE", "result": 10}, {"measurement": "Plant response rating, Nutsedge", "setting": "purple nutsedge; POSTEMERGENCE, Rate 50 g/ha", "result": 5}, {"measurement": "Plant response rating, Nutsedge", "setting": "purple nutsedge; PREEMERGENCE, Rate 50 g/ha", "result": 0}, {"measurement": "Plant response rating, Nutsedge", "setting": "purple nutsedge; Rate 200 g/ha, POSTEMERGENCE", "result": 4}, {"measurement": "Plant response rating, Nutsedge", "setting": "purple nutsedge; Rate 200 g/ha, PREEMERGENCE", "result": 0}, {"measurement": "Plant response rating, Bedstraw", "setting": "bedstraw; 62 g/ha", "result": 70}, {"measurement": "Plant response rating, Bedstraw", "setting": "bedstraw; 125 g/ha", "result": 100}, {"measurement": "Plant response rating (0 to 100), Bedstraw", "setting": "bedstraw; Rate 31 g/ha", "result": 60}, {"measurement": "Plant response rating, Blackgrass", "setting": "blackgrass; 62 g/ha", "result": 30}, {"measurement": "Plant response rating, Blackgrass", "setting": "blackgrass; 125 g/ha", "result": 40}, {"measurement": "Plant response rating (0 to 100), Blackgrass", "setting": "blackgrass; Rate 16 g/ha", "result": 10}, {"measurement": "Plant response rating (0 to 100), Blackgrass", "setting": "blackgrass; Rate 31 g/ha", "result": 10}, {"measurement": "Plant response rating, Chickweed", "setting": "chickweed; 62 g/ha", "result": 40}, {"measurement": "Plant response rating, Chickweed", "setting": "chickweed; 125 g/ha", "result": 70}, {"measurement": "Plant response rating (0 to 100), Chickweed", "setting": "chickweed; Rate 16 g/ha", "result": 20}, {"measurement": "Plant response rating (0 to 100), Chickweed", "setting": "chickweed; Rate 31 g/ha", "result": 30}, {"measurement": "Plant response rating, Corn", "setting": "corn; 62 g/ha", "result": 30}, {"measurement": "Plant response rating, Corn", "setting": "corn; 125 g/ha", "result": 30}, {"measurement": "Plant response rating (0 to 100), Corn", "setting": "corn; Rate 16 g/ha", "result": 20}, {"measurement": "Plant response rating (0 to 100), Corn", "setting": "corn; Rate 31 g/ha", "result": 30}, {"measurement": "Plant response rating, Cotton", "setting": "cotton; 62 g/ha", "result": 100}, {"measurement": "Plant response rating, Cotton", "setting": "cotton; 125 g/ha", "result": 100}, {"measurement": "Plant response rating (0 to 100), Cotton", "setting": "cotton; Rate 16 g/ha", "result": 100}, {"measurement": "Plant response rating (0 to 100), Cotton", "setting": "cotton; Rate 31 g/ha", "result": 100}, {"measurement": "Plant response rating, Giant foxtail", "setting": "giant foxtail; 62 g/ha", "result": 30}, {"measurement": "Plant response rating, Giant foxtail", "setting": "giant foxtail; 125 g/ha", "result": 60}, {"measurement": "Plant response rating (0 to 100), Giant foxtail", "setting": "giant foxtail; Rate 16 g/ha", "result": 10}, {"measurement": "Plant response rating (0 to 100), Giant foxtail", "setting": "giant foxtail; Rate 31 g/ha", "result": 20}, {"measurement": "Plant response rating Pigweed", "setting": "pigweed; 62 g/ha", "result": 100}, {"measurement": "Plant response rating Pigweed", "setting": "pigweed; 125 g/ha", "result": 100}, {"measurement": "Plant response rating (0 to 100), Pigweed", "setting": "pigweed; Rate 16 g/ha", "result": 90}, {"measurement": "Plant response rating (0 to 100), Pigweed", "setting": "pigweed; Rate 31 g/ha", "result": 100}, {"measurement": "Plant response rating, Sugar beet", "setting": "sugar beet; 62 g/ha", "result": 100}, {"measurement": "Plant response rating, Sugar beet", "setting": "sugar beet; 125 g/ha", "result": 100}, {"measurement": "Plant response rating (0 to 100), Sugar beet", "setting": "sugar beet; Rate 16 g/ha", "result": 100}, {"measurement": "Plant response rating (0 to 100), Sugar beet", "setting": "sugar beet; Rate 31 g/ha", "result": 100}, {"measurement": "Plant response rating, Velvetleaf", "setting": "velvetleaf; 62 g/ha", "result": 100}, {"measurement": "Plant response rating, Velvetleaf", "setting": "velvetleaf; 125 g/ha", "result": 100}, {"measurement": "Plant response rating (0 to 100), Velvetleaf", "setting": "velvetleaf; Rate 16 g/ha", "result": 100}, {"measurement": "Plant response rating (0 to 100), Velvetleaf", "setting": "velvetleaf; Rate 31 g/ha", "result": 100}, {"measurement": "Plant response rating (0 to 100), Rice Japonica", "setting": "rice [2]; Rate 16 g/ha", "result": 20}, {"measurement": "Plant response rating (0 to 100), Rice Japonica", "setting": "rice [2]; Rate 31 g/ha", "result": 30}, {"measurement": "Plant response rating Rice Japonica", "setting": "rice [2]; 62 g/ha", "result": 30}, {"measurement": "Plant response rating Rice Japonica", "setting": "rice [2]; 125 g/ha", "result": 30}, {"measurement": "Plant response rating (0 to 100), Umbrella sedge", "setting": "umbrella sedge; Rate 16 g/ha", "result": 0}, {"measurement": "Plant response rating (0 to 100), Umbrella sedge", "setting": "umbrella sedge; Rate 31 g/ha", "result": 0}, {"measurement": "Plant response rating Umbrella sedge", "setting": "umbrella sedge; 62 g/ha", "result": 60}, {"measurement": "Plant response rating Umbrella sedge", "setting": "umbrella sedge; 125 g/ha", "result": 70}, {"measurement": "Plant response rating (0 to 100), Duck salad", "setting": "duck salad; Rate 16 g/ha", "result": 0}, {"measurement": "Plant response rating (0 to 100), Duck salad", "setting": "duck salad; Rate 31 g/ha", "result": 0}, {"measurement": "Plant response rating Duck salad", "setting": "duck salad; 62 g/ha", "result": 0}, {"measurement": "Plant response rating Duck salad", "setting": "duck salad; 125 g/ha", "result": 0}]}
